These results are taken from the Kinase Knowledgebase extract (Sharma et al. 2016).

Each structure is given as a SMILES string.

In this experiment the target is PIK3CD (Human) (UniProt O00329). Briefly: Assessment of PIK3CD Kinase Activity.

The IC50 is the concentration needed to halve the response being measured. Low readings indicate inhibition by little substance, high ones a need for much substance.

PIK3CD (Human), sequence (O00329 whole entry, looked up): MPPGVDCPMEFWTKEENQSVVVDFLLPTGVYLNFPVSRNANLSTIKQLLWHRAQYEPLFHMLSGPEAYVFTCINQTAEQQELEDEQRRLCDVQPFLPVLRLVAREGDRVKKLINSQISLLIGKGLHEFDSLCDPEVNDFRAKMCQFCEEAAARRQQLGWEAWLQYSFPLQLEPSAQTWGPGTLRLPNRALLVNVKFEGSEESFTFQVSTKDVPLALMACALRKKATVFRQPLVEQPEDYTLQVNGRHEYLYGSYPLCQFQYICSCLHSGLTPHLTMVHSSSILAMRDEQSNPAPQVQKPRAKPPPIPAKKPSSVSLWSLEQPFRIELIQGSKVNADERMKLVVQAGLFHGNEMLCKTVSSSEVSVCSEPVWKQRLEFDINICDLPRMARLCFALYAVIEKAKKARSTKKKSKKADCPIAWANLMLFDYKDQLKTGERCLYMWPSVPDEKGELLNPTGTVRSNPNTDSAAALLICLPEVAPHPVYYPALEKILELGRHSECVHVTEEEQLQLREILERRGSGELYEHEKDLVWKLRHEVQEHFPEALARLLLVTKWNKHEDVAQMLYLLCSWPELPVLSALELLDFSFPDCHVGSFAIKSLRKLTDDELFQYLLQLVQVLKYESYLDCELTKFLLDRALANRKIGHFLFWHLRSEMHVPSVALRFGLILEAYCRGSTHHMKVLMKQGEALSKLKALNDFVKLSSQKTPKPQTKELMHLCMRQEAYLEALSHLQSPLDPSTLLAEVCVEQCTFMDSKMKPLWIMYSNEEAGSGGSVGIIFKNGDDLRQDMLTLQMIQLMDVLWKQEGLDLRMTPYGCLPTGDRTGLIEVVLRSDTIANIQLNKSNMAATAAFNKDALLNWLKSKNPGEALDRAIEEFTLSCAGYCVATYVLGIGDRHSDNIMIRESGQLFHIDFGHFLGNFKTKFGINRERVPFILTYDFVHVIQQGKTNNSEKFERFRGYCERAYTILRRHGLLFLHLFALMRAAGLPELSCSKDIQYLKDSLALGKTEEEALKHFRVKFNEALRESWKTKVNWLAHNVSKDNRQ

Molecule `COc1c(C(C)Nc2ncnc3[nH]cnc23)cc(Cl)c(C)c1-c1cnn(C2(CC#N)CC(C#N)C2)c1` (stereo not given) had an IC50 of less than 50 nM.

`COc1c(-c2ccc(NC(C)=O)cc2)cc(Cl)cc1C(C)Nc1ncnc2[nH]cnc12` (stereo not given) gave an IC50 of 50 to 100 nM.

In turn, `CCOc1c(C(C)Nc2ncnc3[nH]cnc23)cc(Cl)c(C#N)c1C1CN(C(C)C)C1` (stereo not given) displayed an IC50 of less than 50 nM.

With `COc1c(C(C)Nc2ncnc3[nH]cnc23)cc(Cl)c(C)c1-c1ccc(C(=O)N2CCOCC2)c(F)c1` (stereo not given), the IC50 is less than 50 nM.

`COc1c(-c2ccncc2)cc(Cl)cc1C(C)Nc1ncnc2[nH]cnc12` (stereo not given) showed an IC50 of 50 to 100 nM.

`COc1c(-c2ccnn2C)cc(Cl)cc1C(C)Nc1ncnc2[nH]cnc12` (stereo not given) came in with an IC50 of 50 to 100 nM.

With `COc1c(C(C)Nc2ncnc3[nH]cnc23)cc(Cl)c(C)c1C1CNC(=O)C1` (stereo not given), the IC50 is less than 50 nM.

For `COc1c(-c2cncnc2)cc(Cl)cc1C(C)Nc1ncnc2[nH]cnc12` (stereo not given), the IC50 is 50 to 100 nM.

In the case of `CNC(=O)c1ccc(-c2c(C)c(Cl)cc(C(C)Nc3ncnc4[nH]cnc34)c2OC)cc1F` (stereo not given), the IC50 was less than 50 nM.

For `COc1c(C(C)Nc2ncnc3[nH]cnc23)cc(Cl)c(C)c1C1CC(=O)N(C)C1` (stereo not given), the IC50 is less than 50 nM.

`COc1c(C(C)Nc2ncnc3[nH]cnc23)cc(Cl)c(F)c1C1=CCN(S(C)(=O)=O)CC1` (stereo not given) came in with an IC50 of less than 50 nM.

`COc1c(C(C)Nc2ncnc3[nH]cnc23)cc(Cl)c(C)c1-c1cncc(C#N)c1` (stereo not given): the IC50 is less than 50 nM.

Turning to `COc1c(C(C)Nc2ncnc3[nH]cnc23)cc(Cl)c(C)c1-c1ccc(C(=O)N2CCC(O)CC2)c(F)c1` (stereo not given), the IC50 was less than 50 nM.

Regarding `COc1c(C(C)Nc2ncnc3[nH]cnc23)cc(Cl)c(C)c1-c1ccc(C(=O)NC2CCC2)c(F)c1` (stereo not given), the half-inhibitory concentration (IC50) was less than 50 nM.

As for `COc1ncc(-c2cc(Cl)cc(C(C)Nc3ncnc4[nH]cnc34)c2OC)cn1` (stereo not given), the IC50 was 100 to 250 nM.
